Test results: US20200368371A1, “DYE-PROTEIN COMPLEX FOR NIR II AND PHOTOACOUSTIC IMAGING” (The Board of Trustees of the Leland Stanford Junior …, priority 2019, published 2020)

Columns and labels:
C57BL/6 mice = test: In vivo NIR-II imaging of lymphatic system
Method: A gentle massage was performed on the injection site for faster diffusion into the lymphatic system.
Before imaging, all mice were anesthetized in a rodent anesthesia machine with 2 L/min O^2 gas mixed with 3% Soflurane. C57BL/6 mice were used for the vascular and lymphatic system NIR-II imaging. […] A gentle massage was performed at the injection site to increase the speed of diffusion into the lymphatic system. […] All groups within the study contained n=3 mice.
All NIR-II images were collected on a two-dimensional InGaAs array NIR-II system (Princeton Instruments). The excitation was provided by an 808 nm diode laser through an optical fiber and collimator. Fluorescence emission was collected with 1000 nm or more than 1000 nm long-pass filters (Thorlabs). A lens set was used to obtain tunable magnifications ranging from 1× (whole body) to 2.5× (high magnification) by changing the relative position of two NIR achromats (75 mm and 200 mm, Thorlabs). Image J software were used for analyzing the images.
The fluorescence measurement was performed to quantify NIR-II fluorescence signal intensity through the Image J software (National Institutes of Health, Bethesda, Md.). The line graphs and Gaussian-fitted FWHM were analysis by origin 8.5 (OriginLab Corporation, Northampton, Mass.).

[1] = Fluorescence intensity at different concentrations of IR-820 in deionized water and PBS; format: physicochemical
Method: IR-820 was first dissolved in deionized water, and then added to deionized water or PBS to determine the optimal concentration. […] 10 μM was determined as the concentration for other studies. […] Different HSA: IR-820 ratios were prepared while keeping IR-820 at a constant 10 μM to determine the approximate binding stoichiometry.

[2] = Absorbance spectra in deionized water; format: physicochemical; settings: DI water
From the text: Absorbance spectra of IR-820 and complexes were taken on an ultraviolet-visible-NIR Cary 60 spectrometer (Agilent Technologies) with background correction.

[3] = all light conditions; cited from earlier work
[4] = prone position, subcutaneous footpad injection

## CC1(C)C(=CC=C2CCCC(C=CC3=[N+](CCCCS(=O)(=O)[O-])c4ccc5ccccc5c4C3(C)C)=C2Cl)N(CCCCS(=O)(=O)[O-])c2ccc3ccccc3c21.[Na+] [IR-820]
C57BL/6 mice; left side, subcutaneous injection
  identification of the inguinal lymph node: failed
C57BL/6 mice; [4]
  FWHM of lymphatic vessels: unmeasurable
  SBR of lymphatic vessels: 1.33
[1]
  behaviour in PBS: poor solubility or severe quenching
[2]
  absorbance strong peak: 690 nm
  absorbance weak shoulder: 815 nm
[3]
  stability in aqueous solution: greater stability than ICG
